≈ marks a conversion by molar mass, not a printed value. Some results are limits rather than exact numbers.

For orientation: IC50 means the concentration needed to halve the response being measured.

Data set [1] concerns 3T3 cells. Description: MTT cell viability assay, 3T3. It is filed as cell-based. Particulars: Mus musculus, NIH3T3; 3T3, MTT, 24 h. On the procedure:
(§1) The murine Swiss albino fibroblast (3T3), the immortal human keratinocyte (HaCaT), the squamous cell carcinoma (A431), the human epithelial carcinoma (HeLa) and the human breast adenocarcinoma (MCF-7) cell lines were sourced from Celltec UB (Barcelona, Spain). All cells were maintained and grown in DMEM medium (4.5 g/L glucose) supplemented with 10% (v/v) FBS, 2 mM L-glutamine, 100 U/mL penicillin and 100 μg/mL streptomycin at 37 °C, 5% CO2. Cells were routinely cultured in 75 cm^2 culture flasks and were trypsinized using trypsin-EDTA when the cells reached approximately 80%. Cell concentration in the resulting suspension was assessed using the trypan blue assay, which enables direct discrimination between viable (unstained) and non-viable (blue) cells.
(§2) T3 and HaCaT cells (1 × 10^5 cells/mL), along with A431, HeLa, and MCF-7 cells (5 × 10^4 cells/mL), were cultured at defined seeding densities in the 60 central wells of a 96-well plate. Cells were first incubated for 24 h under standard incubator conditions (5% CO2, 37 °C). After this period, the culture medium was removed, and the cells were incubated for an additional 24 h with their corresponding compound solutions (1 mg/mL) previously diluted in a minimum amount of DMF (dimethylformamide) and then in DMEM medium supplemented with 5% FBS (100 µL) at the required concentration range (20 to 250 µg/mL). Cell viability following exposure to the lactam derivatives was evaluated using two complementary assays: NRU and MTT.
(§3) Only living cells can reduce the yellow tetrazolium salt 3-(4,5-dimethyl-2-thiazolyl)-2,5-diphenyltetrazolium bromide (MTT) to insoluble purple formazan crystals. After a 24 h incubation of the cells with their corresponding NPs, the medium was removed and 100 µL of MTT (Sigma-Aldrich, St. Louis, MO, USA) in PBS (5 mg/mL) diluted 1:10 in culture medium without phenol red and without FBS (Lonza, Verviers, Belgium) was added to the cells. After 3 h of incubation, the medium was removed. Thereafter, 100 µL of DMSO (Sigma-Aldrich, St. Louis, MO, USA) was added to each well to dissolve the purple formazan crystals. Agitation and absorbance measurements of the extracted solution were carried out under the same conditions described for the NRU assay. The effect of each treatment was then expressed as the percentage of tetrazolium salt reduction by viable cells relative to untreated controls.
(§4) The half-maximal inhibitory concentration (IC50) values for the different formulations, across cell lines and experimental endpoints, were obtained by fitting the concentration-dependent viability curves. […] These findings reflect the very low cytotoxicity of the compounds toward these cell lines.

A further data set deals with HaCaT cells. The data set can be described thus: MTT cell viability assay, HaCaT. It is filed as cell-based. Conditions: Homo sapiens, 24 h. How it is done: as §1, §2, §3, §4
Background: Tetrazolium dyes change colour on reduction, which living cells bring about.

The test system of a further data set is A431 cells. The data set can be described thus: MTT cell viability assay, A431. It is filed as cell-based. Conditions: Homo sapiens, A-431, 24 h. On the procedure:
as §1, §2, §3, §4

The next data set concerns HeLa cells. The data set can be described thus: MTT cell viability assay, HeLa. Conditions: Homo sapiens, 24 h. Type of data set: cell-based. How it is done:
as §1, §2, §3, §4

The test system of data set [2] is 3T3 cells. The data set can be described thus: NRU cell viability assay, 3T3. Type of data set: cell-based. Particulars: Mus musculus, NIH3T3; 3T3, NRU, 24 h. On the procedure:
as §1, §2
The neutral red uptake (NRU) assay is based on the accumulation of dye in the lysosomes of viable cells. After the cells were incubated for 24 h with the corresponding systems, the medium was removed, and the solutions were incubated with the NR dye (Sigma-Aldrich, St. Louis, MO, USA) solution (50 µg/mL) dissolved in the medium, without FBS and without phenol red (Lonza, Verviers, Belgium), for 3 h. Cells were then washed with sterile PBS, followed by the addition of 100 µL of a solution containing 50% absolute ethanol and 1% acetic acid in distilled water to extract the dye. To promote the total dissolution of the dye, plates were placed in a microtiter-plate shaker for 5 min at room temperature. The absorbance of the resulting solutions was measured at 550 nm (Bio-Rad 550 microplate reader, Bio-Rad California, Hercules, CA, USA). Finally, the effect of each treatment was calculated as the percentage of dye uptake by viable cells relative to the control cells (cells without any treatment). […]

Another data set concerns zebrafish embryos. Description: Touch-evoked response (TER) test. It is filed as in vivo. Particulars: 72 hpf, after 2 h washout. How it is done: Adult zebrafish, both male and female, were procured from a commercial supplier (Pisciber, Barcelona, Spain) and housed in a closed flow-through system with standardized dilution water, as specified in ISO 7346-1 [16] (2 mM CaCl2·2H2O; 0.5 mM MgSO4·7H2O; 0.75 mM NaHCO3; 0.07 mM KCl). The fish were maintained at a temperature of 26 ± 1 °C on a 14 h light and 10 h dark cycle and were daily fed in the morning with Artemia salina, and with commercial flake food in the afternoon (SDS400, Special Diet Services, Dietex, France). The day before eggs were needed, males and females were placed in a breeding tank with plants at a 2:1 male-to-female ratio. The following morning, eggs were collected 30 min after the lights were turned on. […]
At 72 hpf, test solutions were replaced with 0.3× Danieau’s solution without the chemical and incubated at 27 °C ± 1 °C for 2 h. […] In brief, videos were recorded using a Casio Exilim EX-ZR200 video camera (Tokyo, Japan) and the distance swam by zebrafish embryos was measured after three mechanical stimuli, applied to the tail with a forceps tip (Fine Science Tools, Dumont #5, Foster City, CA, USA) at 10 s intervals. […] Six larvae per concentration group were evaluated in at least three independent experiments.
Statistical analysis was performed using GraphPad Prism v.10.0.2. TER test was analyzed using one-way ANOVA and the post-hoc multiple-comparison Dunnett test. […]

For the molecule `C[C@@H]1CN([C@@H](C)c2ccccc2)C(=O)C1(Cl)Cl` [Compound 3, (R)-3,3-dichloro-4-methyl-1-((S)-1-phenylethyl)pyrrolidin-2-one], the IC50 in the data set on 3T3 cells [1] stood at 30 µg/mL (≈ 110 µM); in the data set with HaCaT cells, 122 µg/mL (≈ 450 µM); in the data set with A431 cells, 56 µg/mL (≈ 206 µM); in the data set on HeLa cells, 184 µg/mL (≈ 675 µM); with 3T3 cells [2], 65 µg/mL (≈ 239 µM). Moreover, in the data set with zebrafish embryos, the “concentration from which a statistically significant adverse effect was observed in the TER” value was at least 7800 ng/mL.
Turning to `C[C@H](c1ccccc1)N1C[C@H](C)C(Cl)(Cl)C1=O` [Compound 4], the IC50 in the data set on 3T3 cells [1] was found to be 94.6 µg/mL (≈ 348 µM); in the data set with HaCaT cells, 57.3 µg/mL (≈ 210 µM); in the data set on A431 cells, 164 µg/mL (≈ 604 µM); with HeLa cells it was 94.3 µg/mL (≈ 346 µM); in the data set on 3T3 cells [2], 173 µg/mL (≈ 634 µM). Further, the “concentration from which a statistically significant adverse effect was observed in the TER” value with zebrafish embryos was at least 7800 ng/mL.
